“Also recorded” adds a separate entry of the source.
Columns and labels:
ES-2 = experiment: Cell proliferation assay; format: cell-based; settings: Homo sapiens
OAW28 = experiment: Senescence quantification (SA-βGal); format: cell-based; settings: OAW28, loss of Rb expression
Experimental: Day 1: 96 well plate was seeded with 4000 cells/well and incubated for 24 hours at 37° C.
Day 2: Compound 42 (50, 100, or 150 nM) or palbociclib (1 μM) as positive control were added to the wells and the plate was incubated for 96 hours at 37° C.
Day 6: Senescence cells histochemical Staining Kit (Sigma) was used. The growth medium form the cells were aspirated then washed twice with fresh […]. […] 100 μL filtered Fixation Buffer was added per well and the plate was incubated for 6-7 minutes at room temperature. Then, the cells were rinsed 3 times with PBS. 50 μL of the Staining Mixture was added per well and incubated at 37° C. overnight without CO2 (staining is pH dependent). After staining, the Staining Mixture was removed, PBS and Hoechst dye (1 μg/mL) were added. Ten images were taken with Epifluorescence Microscope using the blue filter and 10 images were taken in the brightfield. The images were used to count the total cell number—the positive blue cells were counted in the bright field. The percentage of cells expressing β-galactosidase was calculated.
Method 1: Mammalian β-Galactosidase Assay Kit (Thermo Scientific) was used. […] The cells were washed once with PBS. […] The absorbance was measured at 405 nm. […]
Method 2: Assay of a portion of the lysate. […] 25 μL of lysate was removed and use it for Protein Quantification (BCA). […]

pRb = experiment: Western blot of cellular biomarker pRb; format: cell-based
Experimental: Various cancer cells lines were treated with Compound 42 or palbociclib (control) to measure the expression of cyclin D, cyclin E, pRb, and Rb.
Day 1: 6 well plate was seeded with 3×10^5 cells/well with a final volume of 3 mL and incubated for 24 hours at 37° C.
Day 2: The media was removed and Compound 42 (see below for dose) or palbociclib (1 μM) as positive control were added to the wells the desired concentration in cell culture media, giving a final volume of 3 mL per well. The plate was incubated for 24 hours at 37° C. (or desired period).
Day 3: The media was removed from wells and washed ×3 with PBS. 500 μl of trypsin was added to the wells and incubate until cells detach. 500 μl media was added to neutralise trypsin, transferred to 2 ml Eppendorfs, and centrifuged (1500 RPM for 5 minutes). While spinning, the wells were washed with 1 mL PBS to collect any remaining cells. This wash was used to centrifuged cell pellet. After the first spin, the supernatant was discarded and the pellet was washed with PBS collected from the previous step. The centrifugation step was repeated and the supernatant was discarded and the pellet wash again with fresh PBS. The centrifugation and wash with PBS was repeated one more time. RIPA cell lysate buffer was prepared and Protease Inhibitor Cocktail was included. The supernatant was discarded and […] RIPA cell lysate buffer was added to the pellet. The protein concentration was determined using the BCA assay kit.
Day 4: Western blot analysis was performed. 4-12% Bis-Tris gel and MOPS running buffer was used. The running buffer was made to sufficient volume of running buffer to 1× concentration. 20 μg protein (v/v loading & reducing buffer) of each sample was loaded into wells. Some proteins may require more, or less, protein loaded. The gel was ran at standard settings 200 V for 45 minutes. […] The membrane was blocked using 5% non-fat powdered milk* made up in 1×TBS containing 0.1% Tween (TBS-T and incubated for 1 hr with gentle rocking. The observation from the Western blot analysis is quantified in FIGS. 2-7D. […]

[1] = HCT-116 xenograft model, body weight and adverse events; format: in vivo; settings: for weight loss or adverse events: Groups 2-6 of Table 8, IP daily for 20 days; for body weight: throughout the duration of the study, Compound 42 1 and 5 mg/kg, Compound F 10 or 25 mg/kg
Experimental: Treatments were initiated when turner volume reached 100-150 mm^3. Treatments started on Day 5. Test compounds were administered intraperitoneally (II′) in 10 mg/mL solution comprising 10% N,N-dimethyl acetamide, 15% macrogol 15 hydroxy stearate, polyethylene glycol-15-hydroxystearate, and 75% aqueous hydroxypropyl-beta-cyclodextrin.
Observation and data collection: After tumor cells inoculation, the animals were checked daily for morbidity and mortality. At the time of routine monitoring, the animals were checked for any adverse effects of tumor growth and treatments on normal behavior such as mobility, visual estimation of food and water consumption, body weight gain/loss, eye/hair matting and any other abnormal effects, Death and observed clinical signs were recorded, per […] IACUC. Tumor volumes were measured every 3-4 days in two dimensions using an electronic caliper, sad the volume data are expressed in, mm3 using the formula: V=0.5 a×b^2 where a and b are fee long and short diameters of the tumor, respectively. Dosing and tumor volume measurement procedures were conducted in a Laminar Flow Cabinet according to Altogen Labs IACUC regulations.
Body weight loss daring fee study: Sacrifice fee mouse when one measurement of body weight loss (BWL)>20% (only for control animals). Animal research associated wife this study was conducted under Altogen Labs IACUC regulatory space. Altogen Labs IACUC guidelines were followed in case of BWL and any other conditions.

Row | Structure (SMILES) | IC50 (ES-2; Ovarian ES-2, overexpression of Cyclin D, loss of p16 (mutant p53)) | EC50 (ES-2; Table 7a, Ovarian (ES-2)) | cell senescence (OAW28) | pRb expression (pRb; A2780, 250 nM Compound 42, 24 hours, compared to palbociclib 1 μM) | pRb expression (pRb; HT116, with increasing concentration) | pRb expression (pRb; OAW42, 250 nM Compound 42, 24 hours, compared to palbociclib 1 μM) | weight loss or adverse events [1] | body weight [1]
1 | Cc1ccccc1C(=O)Nc1nc(NC(=O)c2ccccc2C)n(-c2ccc(OC(F)(F)F)cc2)n1 [Compound 42, N,N′-(1-(4-(trifluoromethoxy)phenyl)-1H-1,2,4-triazole-3,5-diyl)bis(2-methylbenzamide)] | 0.057 µM | 0.042 µM | not observed; also recorded: no senescence; also recorded: += weak senescence due to loss of RB | some reduction of pRb expression | reduction | reduction of pRb expression | No weight loss or any adverse events | maintained body weight
2 | Cc1ccccc1C(=O)Nc1nc(NC(=O)c2ccccc2C)n(-c2ccccc2)n1 [Compound F, 2-methyl-N-[5-[(2-methylbenzoyl)amino]-1-phenyl-1,2,4-triazol-3-yl]benzamide] | – | – | – | – | – | – | No weight loss or any adverse events | maintained body weight

Source: patent US20210244712A1, “METHODS FOR TREATING PATIENTS WITH CANCER HAVING DEFECTS IN CYCLIN D REGULATION” (NysnoBio Ireland DAC, priority 2018, published 2021)
